# In PMC9344054, “Studies on Chemical Characterization of Ginkgo Amillaria Oral Solution and Its Drug–Drug Interaction With Piceatannol 3′-O-β-D-Glucopyranoside for Injection” (Frontiers in Pharmacology, 2022):
# Tests used:
# UGT2B7 = experiment: Metabolism of PG based on UGTs, rat liver microsomes with inhibitor fluconazole; type: in vitro ADME; settings: PG 10 μmol L−1, fluconazole 50 μmol L−1, p > 0.05
# Description: (§1) The incubation mixtures consisted of 1 mg mL^−1 of rat liver microsomes, 1 mmol L^−1 of UDPGA and 10 μmol L^−1 of PG, tris-HCl (pH = 7.4) and inhibitor (pazopanib (50 μmol L^−1)), niflumic acid (10 μmol L^−1), and fluconazole (50 μmol L^−1). The incubation system was the same as that in “2.4.1.,” whereas polydatin (20 μg mL^−1) was selected as the IS. Detection and analysis conditions based on UPLC-QQQ-MS were the same as those in “2.4.2.” The MRM transitions, cone voltage, and collision voltage of the target compounds and IS are shown in Supplementary Table S1.
# [1] = rats, 2020, cited from earlier work
# UGT1A9 = experiment: Metabolism of PG based on UGTs, rat liver microsomes with inhibitor niflumic acid; type: in vitro ADME; settings: PG 10 μmol L−1, niflumic acid 10 μmol L−1, p < 0.0001
# Description: as §1
# [2] = Pharmacokinetic study of PGI alone and after repeated GAO in rats; type: in vivo, rat; settings: for clearance / AUC(0-inf) / AUC(0-t) / half-life: male, SD, rat, plasma, iv, 9 mg/kg, n = 8; for clearance: CL
# Description: A total of 100 μl of rat plasma sample and 10 μl of polydatin solution (IS) were mixed with 400 μl of ice acetonitrile; the mixture was vortexed for 3 min and centrifuged at 13,200 × g under 4℃ for 20 min. The supernatant was transferred to another centrifuge tube and dry with nitrogen, re-dissolved with 100 μl of 80% methanol-H2O (v/v). The mixture was vortexed for 3 min and centrifuged at 13,200 × g under 4℃ for 20 min. For further LC-MS analysis, 3 μl of the supernatant was injected.
# An ultrahigh-performance liquid chromatography-mass spectrometer (Waters, United States) was used for separation and detection. A Waters ACQUITY UPLC HSS T3 column (2.1 × 100 mm, 1.8 μm) was employed at 35℃ with a flow rate of 0.3 ml min^−1. The mobile phase consisted of acetonitrile (A) and water containing 0.1% FA (B). The following linear gradient was used: 0–4 min: 25–95% A; 4–4.5 min: 95–25% A; and 4.5–6 min: 25% A.
# MRM was performed using QQQ-MS model Xevo TQ-S (Waters, United States). ESI was set as follows: capillary voltage, 3.0 kV; desolvation temperature, 450℃; and desolvation gas flow, 900 L/h (N2, purity 99.9%). The MRM transitions (precursor → product) of PG and polydatin (IS) were m/z 405.16 → m/z 243.18 and m/z 389.16 → m/z 227.20, respectively. The cone voltage of PG and polydatin were 80 and 84 V, respectively. The collision energy of PG and polydatin was 30 and 20 V, respectively.
# Sixteen SD male rats (200 ± 20 g) were purchased from Beijing Vital River Laboratory Animal Technology Co., Ltd. (license number: SCXK (Beijing) 2016-0006). All rats were reared adaptively in a suitable environment for 1 week with freely available food and water. The temperature was maintained at 22℃, and the light was maintained for 12 h in a day.
# The rats were randomly divided into two groups, viz., the control group (n = 8) and the combined group (n = 8). For the control group, 9 mg kg^−1 of PGI was injected into the tail vein of rats, whereas the same dosage of PGI was injected after 14 days of repeated GAO ingestion (51 mg kg^−1) for the combined group. The dosage administered to rats is in accordance with clinical dosage. After administration, blood samples were obtained from each rat at 0.03, 0.08, 0.16, 0.33, 0.5, 0.75, 1, 2, 3, 4, and 6 h. The blood sample was centrifuged at 6,600 × g under 4℃ for 10 min, and the supernatant was stored at −80℃ for further analysis.
# Pharmacokinetic parameters were calculated under a noncompartmental model using Drug and Statistics 1.0 (DAS 1.0) software.
# [3] = Stability of PG in rat blank plasma (method validation); type: in vitro ADME; parameters: unit not given here; settings: n = 6
# Description: UPLC-MS/MS method validation was performed according to the FDA bioanalytical method validation guidance. The method was validated in terms of linearity, accuracy, precision, extraction recovery, matrix effect, and stability.
# The result of specificity is shown in Supplementary Figure S12. The RTs of PG and polydatin were 1.47 and 1.70 min, respectively. Their chromatographic peaks were in good shape, and there was no interference from other endogenous substances. The regression equation of PG was y = 0.584781x − 0.47063, and the r ^2 and range of the linear were 0.9929 and 0.001–40 μg mL^−1, respectively. LLOQ was 0.5 ng mL^−1. The RSD of the intraday and interday precision was less than 15%, and the accuracy was between 80% and 120% (Supplementary Table S11). […] The stability of PG was less than 12.83% (Supplementary Table S13 ). It was shown that the established method complies with the relevant regulations of pharmacokinetics.
# UGT1A1 = experiment: Metabolism of PG based on UGTs, rat liver microsomes with inhibitor pazopanib; type: in vitro ADME; settings: PG 10 μmol L−1, pazopanib 50 μmol L−1, p > 0.05
# Description: as §1
# [4] = after 14 days repeated GAO, p < 0.05
# [5] = Combined group: PGI 9 mg kg−1 tail vein after 14 days of repeated GAO 51 mg kg−1, rats
# [6] = Control group: PGI 9 mg kg−1 tail vein, rats
smiles,measurement,setting,value
"OC[C@H]1O[C@@H](Oc2cc(/C=C/c3cc(O)cc(O)c3)ccc2O)[C@H](O)[C@@H](O)[C@@H]1O [PG, Piceatannol-3′-O-β-D-glucopyranoside]",contribution of UGT2B7 to metabolism of PG,UGT2B7,contributed little or no participation
same,excretion of the prototype of PG,"[1]; 40.0 mg kg−1 PG, tail vein and intragastric administration, ref Xu",mainly excreted through urine
same,distribution,"[1]; ref Chai, 2019, Xu",widely distributed
same,elimination rate,"[1]; ref Chai, 2019, Xu",fast elimination rate
same,excretion,"[1]; ref Chai, 2019, Xu",mainly excreted by urine
same,kinetics,"[1]; ref Chai, 2019, Xu",linear kinetics
same,metabolism of PG by UGT1A9,UGT1A9,mainly metabolized by UGT1A9
same,"change of AUC 0-t of PG, combined group vs control",[2]; [4],significantly increased
same,"change of AUC 0-∞ of PG, combined group vs control",[2]; [4],significantly increased
same,"change of T1/2 of PG, combined group vs control",[2]; [4],prolonged
same,"change of clearance of PG, combined group vs control",[2]; [4],significantly decreased
same,clearance,[2]; [5],30.4 mL/min/kg
same,clearance,[2]; [6],46.2 mL/min/kg
same,AUC(0-inf),[2]; [5],5010 ± 686 ng·h/mL
same,AUC(0-t),[2]; [5],4900 ± 606 ng·h/mL
same,half-life,[2]; [5],1.74 ± 0.802 h
same,AUC(0-inf),[2]; [6],3320 ± 525 ng·h/mL
same,AUC(0-t),[2]; [6],3310 ± 517 ng·h/mL
same,half-life,[2]; [6],1.01 ± 0.409 h
same,"Stability, Measured con.","[3]; 4h, Con. 0.005 μg/mL",111.33
same,"Stability, Measured con.","[3]; 4h, Con. 5 μg/mL",117.12
same,"Stability, Measured con.","[3]; 4h, Con. 30 μg/mL",98.21
same,"Stability, Measured con.","[3]; 24h, Con. 0.005 μg/mL",116.33
same,"Stability, Measured con.","[3]; 24h, Con. 5 μg/mL",115.03
same,"Stability, Measured con.","[3]; 24h, Con. 30 μg/mL",98.37
same,"Stability, Measured con.","[3]; 15 days, Con. 0.005 μg/mL",92.00
same,"Stability, Measured con.","[3]; 15 days, Con. 5 μg/mL",100.78
same,"Stability, Measured con.","[3]; 15 days, Con. 30 μg/mL",96.48
same,"Stability, Measured con.","[3]; Freeze-thaws stability (3 times), Con. 0.005 μg/mL",107.66
same,"Stability, Measured con.","[3]; Freeze-thaws stability (3 times), Con. 5 μg/mL",104.58
same,"Stability, Measured con.","[3]; Freeze-thaws stability (3 times), Con. 30 μg/mL",105.11
same,contribution of UGT1A1 to metabolism of PG,UGT1A1,contributed little or no participation
